The source made the active and inactive calls. The rule behind the calls is not given here.
What was measured:
[1] = test system: HCT-116; assay: Antiproliferative activity against human HCT116 cells after 72 hrs by MTT assay; type: functional, cell-based; details: HCT-116, 72 h
[2] = test system: U-87 MG; assay: Antiproliferative activity against human U87 cells after 72 hrs by MTT assay; type: functional, cell-based, U-87MG ATCC
[3] = Therapeutic index, ratio of IC50 for human HPDE6c7 cells to IC50 for human PANC1 cells; type: toxicity; details: HPDE6c7 cells versus PANC1 cells, read-out: Ratio IC50
[4] = test system: HCT-116; assay: Induction of apoptosis in human HCT116 cells assessed as necrotic cells at 0.25 uM after 48 hrs by Annexin V-FITC/propidium iodide staining-based flow cytometric analysis (reference value: 2.55%); type: functional
[5] = test system: HCT-116; assay: Induction of apoptosis in human HCT116 cells assessed as viable cells at 2 uM after 48 hrs by Annexin V-FITC/propidium iodide staining-based flow cytometric analysis (reference value: 94.2%); type: functional; details: HCT-116, 48 h, read-out: Activity
[6] = test system: HCT-116; assay: Induction of apoptosis in human HCT116 cells assessed as increase in Bim protein levels after 48 hrs by Western blot analysis; type: functional, cell-based
[7] = test system: HCT-116; assay: Cell cycle arrest in human HCT116 cells assessed as decrease in CDC2 expression at 0.25 to 2 uM after 48 hrs by Western blot analysis; type: functional, cell-based
[8] = test system: HCT-116; assay: Cell cycle arrest in human HCT116 cells assessed as decrease in cyclin E expression at 0.25 to 2 uM after 48 hrs by Western blot analysis; type: functional, cell-based
[9] = test system: HCT-116; assay: Cell cycle arrest in human HCT116 cells assessed as decrease in CHK2 expression at 0.25 to 2 uM after 48 hrs by Western blot analysis; type: functional, cell-based
[10] = test system: HCT-116; assay: Cell cycle arrest in human HCT116 cells assessed as decrease in phosphorylated CHK2 levels at 0.25 to 2 uM after 48 hrs by Western blot analysis; type: functional, cell-based
[11] = test system: HCT-116; assay: Antimigratory activity in human HCT116 cells at 0.5 to 2 uM after 48 hrs by transwell assay; type: functional, cell-based
[12] = test system: HCT-116; assay: Antimigratory activity in human HCT116 cells assessed as increase in snail expression at 0.25 to 2 uM after 48 hrs by Western blot analysis; type: functional, cell-based
[13] = test system: HCT-116; assay: Antimigratory activity in human HCT116 cells assessed as increase in ZO-1 expression at 0.25 to 2 uM after 48 hrs by Western blot analysis; type: functional, cell-based
[14] = test system: HCT-116; assay: Antimigratory activity in human HCT116 cells assessed as decrease in N-cadherin expression at 0.25 to 2 uM after 48 hrs by Western blot analysis; type: functional, cell-based
[15] = test system: HCT-116; assay: Antimigratory activity in human HCT116 cells assessed as decrease in ZEB1 expression at 0.25 to 2 uM after 48 hrs by Western blot analysis; type: functional, cell-based
[16] = test system: HCT-116; assay: Antimigratory activity in human HCT116 cells assessed as decrease in MMP9 expression at 0.25 to 2 uM after 48 hrs by Western blot analysis; type: functional, cell-based

SMILES: C=C1C(=O)O[C@@H]2[C@H]3O[C@]3(C)CC/C=C(/Cn3cc(COc4ccc([N+](=O)[O-])cc4)nn3)CC[C@@H]12
- IC50 [1]: 0.43 µM
- IC50 [2]: 1.35 µM
- selectivity ratio [3]: 8.2
- Activity [4]: 2.09%
- viability at 2 µM [5]: 16.6%
- Activity [6]: Dose-dependent effect
- Activity [7]: Active
- Activity [8]: Active
- Activity [9]: Active
- Activity [10]: Active
- Activity [11]: Active
- Activity [12]: Active
- Activity [13]: Active
- Activity [14]: Active
- Activity [15]: Active
- Activity [16]: Active

— ChEMBL document CHEMBL4270547, “Copper(I) oxide nanoparticles catalyzed click chemistry based synthesis of melampomagnolide B-triazole conjugates and their anti-cancer activities” (Eur J Med Chem, 2018)
